Source: PMC5845353, “The selective cathepsin K inhibitor MIV-711 attenuates joint pathology in experimental animal models of osteoarthritis” (Journal of Translational Medicine, 2018)

System: rabbits subjected to anterior cruciate ligament transection (ACLT)
Test: Rabbit ACLT study, histomorphometry of bone, cartilage and osteophytes
Type: in vivo
Method: The femora and tibias were decalcified, embedded in paraffin, sectioned at 5-7 µm at two different levels separated by approximately 2 mm, and stained with safranin O and toluidine blue.
Both tibial plateaus and femoral condyles (i.e. four joint compartments) were also subjected to histomorphometric analysis of cartilage, subchondral bone, cancellous bone, and osteophytes. The measurements were made using OsteoMeasureXP version 3.3.0.2 as follows:
Uncalcified cartilage area was measured by tracing the articular surface (cartilage perimeter) and bone or calcified cartilage/uncalcified cartilage interface (cartilage boundary).
Cartilage width was measured by point to point measurement at intersections between a sampling grid with approximately 0.5 mm spacing and the cartilage boundary. The intercepts measured were orthogonal to the cartilage boundary and ended at the cartilage perimeter. At intersections where the cartilage width was zero due to erosion, a value of zero was recorded.
Subchondral bone width was measured by point to point measurement at intersections between a sampling grid with approximately 0.5 mm spacing and the cartilage boundary. The intercepts measured were orthogonal to the cartilage boundary and ended at the first marrow cavity encountered that had at least one dimension approximately equivalent to nearby trabecular thickness.
Osteophyte area was measured for abaxial osteophytes. On the femur, osteophytes associated with the condyles but not with the trochlear grooves were measured.
Bone area (including osteoid) and perimeter were measured in a 3.8 X 1.5 mm ROI centered approximately 1 mm below the bone/cartilage interface. This ROI was intended to be equivalent to the subchondral cancellous bone VOI measured by microCT. Bone volume (BV/TV), trabecular thickness (Tb.Th), trabecular number (Tb.N) and trabecular separation (Tb.Sp) were derived from these measurements using standard formulae.
Slides were evaluated in animal ID order, i.e. in random order with respect to treatment, so that the measurer was effectively blinded to treatment assignment.
Analysis was performed on all four condyles at two levels (Level 1 and 2) for each condyle:
Group 1) sham + vehicle; Group 2) ACLT + vehicle; Group 3) ACLT + MIV-711, 30 µmol/kg (low dose) and Group 4) ACLT + MIV-711, 100 µmol/kg (high dose).

[1] = Level 1 LFC, Group 3, ACLT + MIV-711 30 µmol/kg
[2] = Level 1 LFC, Group 4, ACLT + MIV-711 100 µmol/kg
[3] = Level 1 LTP, Group 3, ACLT + MIV-711 30 µmol/kg
[4] = Level 1 LTP, Group 4, ACLT + MIV-711 100 µmol/kg
[5] = Level 1 MFC, Group 3, ACLT + MIV-711 30 µmol/kg
[6] = Level 1 MFC, Group 4, ACLT + MIV-711 100 µmol/kg

## C#C[C@@H]1CN(C(=O)[C@H](CC(C)C)NC(=O)c2ccc(-c3nc(N4CCN(C)CC4)sc3F)cc2)[C@@H]2C(=O)CO[C@H]12 [MIV-711]
ACLT rabbits, 30 and 100 µmol/kg
  effect on osteophyte parameters at the microscopic level: did not affect
Level 1, MFC, Group 3
  Cart.Bd, Mean: 8.37 mm
  Cart.Bd, Median: 8.42 mm
  Cart.Pm, Mean: 9.31 mm
  Cart.Pm, Median: 9.55 mm
  Cart.Wi, Mean: 264.49 µm
  Cart.Wi, Median: 233.46 µm
  SCB.Wi, Mean: 796.52 µm
  SCB.Wi, Median: 695.73 µm
Level 1, MFC, Group 4
  Cart.Bd, Mean: 8.94 mm
  Cart.Bd, Median: 8.89 mm
  Cart.Pm, Mean: 10.24 mm
  Cart.Pm, Median: 10.20 mm
  Cart.Wi, Mean: 323.96 µm
  Cart.Wi, Median: 341.58 µm
  SCB.Wi, Mean: 655.48 µm
  SCB.Wi, Median: 627.36 µm
Level 1, MTP, Group 3
  BV/TV, Mean: 37.43%
  BV/TV, Median: 39.13%
  Cart.Ar, Mean: 3.43 mm2
  Cart.Ar, Median: 3.15 mm2
  Cart.Bd, Mean: 5.74 mm
  Cart.Bd, Median: 5.82 mm
  Cart.Pm, Mean: 5.96 mm
  Cart.Pm, Median: 5.73 mm
  Cart.Wi, Mean: 627.75 µm
  Cart.Wi, Median: 633.18 µm
  Ophte.Ar, Mean: 7.76 mm2
  Ophte.Ar, Median: 7.61 mm2
  SCB.Wi, Mean: 718.50 µm
  SCB.Wi, Median: 715.91 µm
  Tb.N, Mean: 2.07 1/mm
  Tb.N, Median: 1.97 1/mm
  Tb.Sp, Mean: 306.15 µm
  Tb.Sp, Median: 294.58 µm
  Tb.Th, Mean: 182.44 µm
  Tb.Th, Median: 174.84 µm
Level 1, MTP, Group 4
  BV/TV, Mean: 35.92%
  BV/TV, Median: 35.01%
  Cart.Ar, Mean: 2.98 mm2
  Cart.Ar, Median: 3.00 mm2
  Cart.Bd, Mean: 5.22 mm
  Cart.Bd, Median: 5.08 mm
  Cart.Pm, Mean: 6.31 mm
  Cart.Pm, Median: 5.70 mm
  Cart.Wi, Mean: 618.52 µm
  Cart.Wi, Median: 551.09 µm
  Ophte.Ar, Mean: 9.09 mm2
  Ophte.Ar, Median: 7.85 mm2
  SCB.Wi, Mean: 839.92 µm
  SCB.Wi, Median: 790.92 µm
  Tb.N, Mean: 1.91 1/mm
  Tb.N, Median: 1.80 1/mm
  Tb.Sp, Mean: 346.56 µm
  Tb.Sp, Median: 370.02 µm
  Tb.Th, Mean: 190.56 µm
  Tb.Th, Median: 188.86 µm
[1]
  BV/TV, Mean: 37.49%
  BV/TV, Median: 36.26%
  Cart.Ar, Mean: 2.52 mm2
  Cart.Ar, Median: 2.55 mm2
  Cart.Bd, Mean: 9.42 mm
  Cart.Bd, Median: 9.52 mm
  Cart.Pm, Mean: 10.23 mm
  Cart.Pm, Median: 10.40 mm
  Cart.Wi, Mean: 263.55 µm
  Cart.Wi, Median: 269.31 µm
  Ophte.Ar, Mean: 2.48 mm2
  Ophte.Ar, Median: 1.89 mm2
  SCB.Wi, Mean: 527.88 µm
  SCB.Wi, Median: 537.74 µm
  Tb.N, Mean: 2.87 1/mm
  Tb.N, Median: 2.78 1/mm
  Tb.Sp, Mean: 221.27 µm
  Tb.Sp, Median: 221.54 µm
  Tb.Th, Mean: 131.58 µm
  Tb.Th, Median: 132.19 µm
[2]
  BV/TV, Mean: 40.76%
  BV/TV, Median: 39.99%
  Cart.Ar, Mean: 3.28 mm2
  Cart.Ar, Median: 3.33 mm2
  Cart.Bd, Mean: 11.05 mm
  Cart.Bd, Median: 11.43 mm
  Cart.Pm, Mean: 11.98 mm
  Cart.Pm, Median: 12.38 mm
  Cart.Wi, Mean: 290.77 µm
  Cart.Wi, Median: 272.05 µm
  Ophte.Ar, Mean: 3.18 mm2
  Ophte.Ar, Median: 1.06 mm2
  SCB.Wi, Mean: 478.03 µm
  SCB.Wi, Median: 466.56 µm
  Tb.N, Mean: 2.76 1/mm
  Tb.N, Median: 2.79 1/mm
  Tb.Sp, Mean: 215.44 µm
  Tb.Sp, Median: 222.15 µm
  Tb.Th, Mean: 147.91 µm
  Tb.Th, Median: 146.15 µm
[3]
  BV/TV, Mean: 43.89%
  BV/TV, Median: 43.62%
  Cart.Ar, Mean: 2.03 mm2
  Cart.Ar, Median: 2.02 mm2
  Cart.Bd, Mean: 6.10 mm
  Cart.Bd, Median: 6.13 mm
  Cart.Pm, Mean: 6.15 mm
  Cart.Pm, Median: 6.13 mm
  Cart.Wi, Mean: 340.85 µm
  Cart.Wi, Median: 342.70 µm
  Ophte.Ar, Mean: 0.43 mm2
  Ophte.Ar, Median: 0.58 mm2
  SCB.Wi, Mean: 532.09 µm
  SCB.Wi, Median: 572.30 µm
  Tb.N, Mean: 2.79 1/mm
  Tb.N, Median: 2.77 1/mm
  Tb.Sp, Mean: 202.57 µm
  Tb.Sp, Median: 211.29 µm
  Tb.Th, Mean: 159.11 µm
  Tb.Th, Median: 141.92 µm
[4]
  BV/TV, Mean: 43.87%
  BV/TV, Median: 45.02%
  Cart.Ar, Mean: 2.49 mm2
  Cart.Ar, Median: 2.63 mm2
  Cart.Bd, Mean: 6.56 mm
  Cart.Bd, Median: 6.67 mm
  Cart.Pm, Mean: 6.48 mm
  Cart.Pm, Median: 6.62 mm
  Cart.Wi, Mean: 391.09 µm
  Cart.Wi, Median: 393.49 µm
  Ophte.Ar, Mean: 0.62 mm2
  Ophte.Ar, Median: 0.37 mm2
  SCB.Wi, Mean: 557.78 µm
  SCB.Wi, Median: 592.81 µm
  Tb.N, Mean: 2.47 1/mm
  Tb.N, Median: 2.39 1/mm
  Tb.Sp, Mean: 232.42 µm
  Tb.Sp, Median: 223.55 µm
  Tb.Th, Mean: 179.81 µm
  Tb.Th, Median: 179.09 µm
[5]
  BV/TV, Mean: 52.87%
  BV/TV, Median: 51.00%
  Cart.Ar, Mean: 2.30 mm2
  Cart.Ar, Median: 2.03 mm2
  Ophte.Ar, Mean: 2.75 mm2
  Ophte.Ar, Median: 2.12 mm2
  Tb.N, Mean: 2.87 1/mm
  Tb.N, Median: 2.98 1/mm
  Tb.Sp, Mean: 164.11 µm
  Tb.Sp, Median: 161.32 µm
  Tb.Th, Mean: 190.82 µm
  Tb.Th, Median: 169.90 µm
[6]
  BV/TV, Mean: 46.41%
  BV/TV, Median: 48.01%
  Cart.Ar, Mean: 2.99 mm2
  Cart.Ar, Median: 3.31 mm2
  Ophte.Ar, Mean: 5.87 mm2
  Ophte.Ar, Median: 1.02 mm2
  Tb.N, Mean: 2.87 1/mm
  Tb.N, Median: 2.92 1/mm
  Tb.Sp, Mean: 189.94 µm
  Tb.Sp, Median: 173.69 µm
  Tb.Th, Mean: 161.31 µm
